Assay results published in ChEMBL document CHEMBL1201862, “PubChem BioAssay data set” (2004).
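Where inhibition never reached the appropriate level, the endpoint shown equals the highest concentration tested. Otherwise, values were interpolated linearly from a five-concentration, 48-hour dose response in 96-well plates. Abbreviation: GI50, concentration required for 50% inhibition of growth.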 Active and inactive are the calls of the source. Rule as the data show it: active = GI50 up to about 1.1 µM and inactive = higher.

Key:
Assay in all cases: NCI anticancer screen, dose series, 48 h
NCI-H226 = test system: NCI-H226
EKVX = test system: EKVX
SK-MEL-5 = test system: SK-MEL-5
U-251 = test system: U-251
MOLT-4 = test system: MOLT-4
TK-10 = test system: TK-10
UACC-257 = test system: UACC-257
M14 = test system: M14
HOP-92 = test system: HOP-92
A498 = test system: A498
SK-OV-3 = test system: SK-OV-3
RPMI-8226 = test system: RPMI-8226
HT-29 = test system: HT-29
UACC-62 = test system: UACC-62
NCI/ADR-RES = test system: NCI/ADR-RES
HCT-116 = test system: HCT-116
SW-620 = test system: SW-620
K562 = test system: K562
CCRF-CEM = test system: CCRF-CEM
MCF7 = test system: MCF7
SF-268 = test system: SF-268
T47D = test system: T47D
MDA-N = test system: MDA-N
SF-295 = test system: SF-295
NCI-H23 = test system: NCI-H23
MDA-MB-231 = test system: MDA-MB-231
A549 = test system: A549
PC-3 = test system: PC-3
OVCAR-3 = test system: OVCAR-3
HOP-62 = test system: HOP-62
BT-549 = test system: BT-549
MDA-MB-435 = test system: MDA-MB-435
OVCAR-8 = test system: OVCAR-8
SNB-75 = test system: SNB-75
SK-MEL-28 = test system: SK-MEL-28
RXF 393 = test system: RXF 393
DU-145 = test system: DU-145
NCI-H460 = test system: NCI-H460
SNB-19 = test system: SNB-19
NCI-H522 = test system: NCI-H522
KM12 = test system: KM12
OVCAR-4 = test system: OVCAR-4
SN12C = test system: SN12C
Hs-578T = test system: Hs-578T
CAKI-1 = test system: CAKI-1
786-0 = test system: 786-0
UO-31 = test system: UO-31
HCT-15 = test system: HCT-15
SF-539 = test system: SF-539
IGROV-1 = test system: IGROV-1
ACHN = test system: ACHN
HCC 2998 = test system: HCC 2998
COLO 205 = test system: COLO 205
OVCAR-5 = test system: OVCAR-5
SK-MEL-2 = test system: SK-MEL-2
SR = test system: SR
HL-60 = test system: HL-60
Malme-3M = test system: Malme-3M
LOX IMVI = test system: LOX IMVI

Measured: GI50

N#CCCN(CCC#N)c1ccc(C(=N/c2ccc(Cl)cc2)/N=N/c2ccccc2)cc1
27.4 µM: HCT-15
inactive: NCI-H226 > 100 µM | EKVX 99.5 µM | SK-MEL-5 10.3 µM | U-251 > 100 µM | MOLT-4 > 100 µM | TK-10 88.5 µM | UACC-257 59.4 µM | M14 > 100 µM | HOP-92 > 100 µM | A498 > 100 µM | SK-OV-3 > 100 µM | RPMI-8226 > 100 µM | HT-29 > 100 µM | UACC-62 34.3 µM | NCI/ADR-RES 36.3 µM | HCT-116 > 100 µM | SW-620 > 100 µM | K562 > 100 µM | CCRF-CEM > 100 µM | MCF7 > 100 µM | SF-268 > 100 µM | T47D 12.8 µM | MDA-N > 100 µM | SF-295 10.9 µM | NCI-H23 54.2 µM | MDA-MB-231 > 100 µM | A549 36.4 µM | PC-3 > 100 µM | OVCAR-3 66.7 µM | HOP-62 > 100 µM | BT-549 17.5 µM | MDA-MB-435 44.9 µM | OVCAR-8 > 100 µM | SNB-75 59.4 µM | SK-MEL-28 > 100 µM | RXF 393 16.9 µM | DU-145 88.5 µM | NCI-H460 55.1 µM | SNB-19 > 100 µM | NCI-H522 36.6 µM | KM12 58.5 µM | OVCAR-4 66.5 µM | SN12C > 100 µM | Hs-578T > 100 µM | CAKI-1 > 100 µM | 786-0 > 100 µM | UO-31 23.8 µM | SF-539 > 100 µM | IGROV-1 55.7 µM | ACHN > 100 µM | HCC 2998 26.6 µM | COLO 205 48.8 µM | OVCAR-5 > 100 µM

Cc1ccc(N2CCC3(CC2)OCCO3)cc1
inactive: NCI-H226 > 100 µM | EKVX > 100 µM | SK-MEL-5 > 100 µM | U-251 > 100 µM | SK-MEL-2 > 100 µM | MOLT-4 > 100 µM | TK-10 > 100 µM | UACC-257 > 100 µM | M14 > 100 µM | HOP-92 > 100 µM | SR > 100 µM | A498 > 100 µM | SK-OV-3 > 100 µM | RPMI-8226 > 100 µM | HT-29 > 100 µM | UACC-62 > 100 µM | NCI/ADR-RES > 100 µM | HCT-116 > 100 µM | SW-620 > 100 µM | K562 > 100 µM | CCRF-CEM > 100 µM | SF-268 > 100 µM | T47D > 100 µM | MDA-N > 100 µM | SF-295 > 100 µM | NCI-H23 > 100 µM | MDA-MB-231 > 100 µM | A549 > 100 µM | PC-3 > 100 µM | OVCAR-3 > 100 µM | HOP-62 > 100 µM | BT-549 > 100 µM | MDA-MB-435 > 100 µM | OVCAR-8 > 100 µM | SNB-75 > 100 µM | SK-MEL-28 > 100 µM | RXF 393 > 100 µM | DU-145 > 100 µM | NCI-H460 > 100 µM | SNB-19 > 100 µM | NCI-H522 > 100 µM | HL-60 > 100 µM | KM12 > 100 µM | OVCAR-4 > 100 µM | SN12C > 100 µM | Hs-578T > 100 µM | CAKI-1 > 100 µM | 786-0 > 100 µM | Malme-3M > 100 µM | UO-31 > 100 µM | SF-539 > 100 µM | IGROV-1 > 100 µM | ACHN > 100 µM | HCC 2998 > 100 µM | COLO 205 > 100 µM | OVCAR-5 > 100 µM
> 100 µM: HCT-15

N#CC(c1ccc(O)cc1)N1CCN(C(C#N)c2ccc(O)cc2)CC1 (stereo not drawn)
inactive: NCI-H226 34.3 µM | EKVX 35.7 µM | SK-MEL-5 > 100 µM | U-251 22.3 µM | SK-MEL-2 68.2 µM | MOLT-4 > 100 µM | TK-10 > 100 µM | UACC-257 > 100 µM | M14 > 100 µM | HOP-92 23.3 µM | SR > 100 µM | A498 > 100 µM | SK-OV-3 28.6 µM | RPMI-8226 > 100 µM | HT-29 > 100 µM | UACC-62 64.1 µM | NCI/ADR-RES 40.8 µM | HCT-116 > 100 µM | SW-620 > 100 µM | K562 > 100 µM | CCRF-CEM > 100 µM | MCF7 > 100 µM | SF-268 24.5 µM | T47D 39.5 µM | SF-295 38.3 µM | NCI-H23 > 100 µM | MDA-MB-231 21.9 µM | A549 99.3 µM | PC-3 > 100 µM | OVCAR-3 > 100 µM | HOP-62 20.2 µM | BT-549 > 72.3 µM | MDA-MB-435 > 100 µM | OVCAR-8 24.3 µM | SNB-75 19 µM | SK-MEL-28 67.3 µM | RXF 393 33.9 µM | DU-145 > 51.8 µM | SNB-19 24.9 µM | NCI-H522 > 100 µM | HL-60 > 100 µM | KM12 > 100 µM | OVCAR-4 > 100 µM | SN12C > 87.1 µM | Hs-578T 27.7 µM | CAKI-1 > 100 µM | LOX IMVI > 100 µM | 786-0 > 64.1 µM | Malme-3M > 100 µM | UO-31 > 100 µM | SF-539 34.7 µM | IGROV-1 51.1 µM | ACHN > 100 µM | HCC 2998 > 100 µM | COLO 205 > 100 µM | OVCAR-5 > 100 µM
97.3 µM: HCT-15
